According to patent US20240033321A1, “PULSATIVE GNRH ADMINISTRATION FOR TREATING FOOD INTAKE RELATED DISORDERS” (INSTITUT NATIONAL DE LA SANTÉ ET DE LA RECHERCHE MÉDICALE, priority 2020, published 2024):

Columns and labels:
[1] = Pulsatile Lutrelef delivery by minipump in Gnrh::Cre; iBot sensitive (overweight) female mice; assay type: in vivo; details: sensitive females
[2] = Pulsatile Lutrelef delivery by minipump in a Gnrh::Cre; iBot sensitive (overlean) male mouse; assay type: in vivo, mice; details: one sensitive male (n=1), one pulse every 3 h
[3] = Pulsatile Lutrelef infusion by subcutaneous programmable mini-pump in obese and lean mice, food intake followed daily; assay type: in vivo; details: 14 days
Procedure: Adult lean and obese male mice were housed under specific pathogen-free conditions in a temperature-controlled room (21-22° C.) with a 12 h light/dark cycle. Animals were provided with ad libitum access to food and water. The body weight of the animals and their food intake were followed on a daily base. Animal studies were approved by the Institutional Ethics Committee for the Care and Use of Experimental Animals of the University of Lille; all experiments were performed in accordance with the guidelines for animal use specified by the European Union Council Directive of Sep. 22, 2010 (2010/63/EU). […] To restore a control/lean pattern of GnRH/LH release in obese mice, we next implanted subcutaneous programmable mini-pumps that delivered either Lutrelef (0.25 μg of GnRH per pulse over 10 min given every 3 h) or vehicle to the mice (i.e., the pattern of secretion found in lean mice). Lutrelef is a native GnRH peptide that is clinically used to successfully treat hypogonadotropic infertility (23,24). The regimen was given for 14-days, during which body weight and food intake were followed daily.

## CC(C)C[C@H](NC(=O)CNC(=O)[C@H](Cc1ccc(O)cc1)NC(=O)[C@H](CO)NC(=O)[C@H](Cc1c[nH]c2ccccc12)NC(=O)[C@H](Cc1cnc[nH]1)NC(=O)[C@@H]1CCC(=O)N1)C(=O)N[C@@H](CCCNC(=N)N)C(=O)N1CCC[C@H]1C(=O)NCC(N)=O [Lutrelef]
[1]; dark phase (feeding period) (FIG. 10B)
  substrate use from RER data: restores the use of carbohydrates during the dark phase
[1]; one pulse every 2 h, 15 days (FIG. 10A)
  bodyweight: decreased body weight
[1]; one pulse every 2 h, 15 days (FIGS. 10B, 10C)
  respiratory exchange ratio (RER): normalised
[1]; one pulse every 2 h, 15 days (FIGS. 10D, 10E)
  food intake: normalised
[2]; 15 days (FIG. 11A)
  bodyweight: fully rescues bodyweight
[2]; 15 days (FIGS. 11B, 11C)
  increase in food intake: 15%
[3]; lean mice, same pulsatile regimen, compared with vehicle-infused littermates (FIG. 9)
  amount of food eaten: no observable effect
[3]; obese male mice, 0.25 μg of GnRH per pulse over 10 min every 3 h, compared with lean mice (FIG. 9)
  cumulative food intake: normalised their cumulative food intake to levels comparable with lean mice
